Test results reported in patent publication US20240415923A1, “RNA-Dependent RNA Polymerase Inhibitory Compounds, Uses in Managing Viral Infections, and Pharmaceutical Compositions” (priority 2023, published 2024).
Structures can show the parent of a compound that is named as a salt. Starred links: 1 amine or outer side, 2 acyl side, 3 side chain; linkers in the order of their positions; H or OH if unused. Positions of bridges follow the written chain, without caps; N, C: chain ends. Non-standard residues stand in square brackets, D forms with d. Residues, ends and D or L forms follow the SMILES beside them. *: point of attachment. hTyr(3S-OH,4S-OH,3'-OSO3H) = N[C@H](C(=O)O)[C@H](O)[C@@H](O)c1ccc(O)c(OS(=O)(=O)O)c1; Orn(4R-OH,5R-OH) = O=C([C@H](C[C@@H](O)[C@@H](O)N[*:3])N[*:1])[*:2]; Pro(3S-OH,4S-Me) = C[C@H]1CN[C@H](C(=O)O)[C@H]1O; X1 = CCCCCOc1ccc(-c2cc(-c3ccc(C(=O)*)cc3)no2)cc1; Gln(3R-OH) = NC(=O)C[C@@H](O)[C@H](N)C(=O)O; Hyp = O=C(O)[C@@H]1C[C@@H](O)CN1

Tests used:
NiV polymerase (L-P) = NiV polymerase (L-P) (Nipah virus, UniProt Q997F0); type: biochemical; details: 1 mM
[1] = biological target: T1, SARS-COV2 polymerase (Nsp7-Nsp8-Nsp12) (Severe acute respiratory syndrome coronavirus 2, UniProt P0DTD1); type: biochemical, severe acute respiratory syndrome coronavirus 2 (SARS-COV2); details: 1 mM
T1 construct: SARS-COV2 polymerase (Nsp7-Nsp8-Nsp12); made in house

[2] = biological target: VSV polymerase (L-P1-106) (Vesicular stomatitis Indiana virus, UniProt P03523); type: biochemical; details: 1 mM
Chain of VSV polymerase (L-P1-106) (P03523 whole entry, looked up): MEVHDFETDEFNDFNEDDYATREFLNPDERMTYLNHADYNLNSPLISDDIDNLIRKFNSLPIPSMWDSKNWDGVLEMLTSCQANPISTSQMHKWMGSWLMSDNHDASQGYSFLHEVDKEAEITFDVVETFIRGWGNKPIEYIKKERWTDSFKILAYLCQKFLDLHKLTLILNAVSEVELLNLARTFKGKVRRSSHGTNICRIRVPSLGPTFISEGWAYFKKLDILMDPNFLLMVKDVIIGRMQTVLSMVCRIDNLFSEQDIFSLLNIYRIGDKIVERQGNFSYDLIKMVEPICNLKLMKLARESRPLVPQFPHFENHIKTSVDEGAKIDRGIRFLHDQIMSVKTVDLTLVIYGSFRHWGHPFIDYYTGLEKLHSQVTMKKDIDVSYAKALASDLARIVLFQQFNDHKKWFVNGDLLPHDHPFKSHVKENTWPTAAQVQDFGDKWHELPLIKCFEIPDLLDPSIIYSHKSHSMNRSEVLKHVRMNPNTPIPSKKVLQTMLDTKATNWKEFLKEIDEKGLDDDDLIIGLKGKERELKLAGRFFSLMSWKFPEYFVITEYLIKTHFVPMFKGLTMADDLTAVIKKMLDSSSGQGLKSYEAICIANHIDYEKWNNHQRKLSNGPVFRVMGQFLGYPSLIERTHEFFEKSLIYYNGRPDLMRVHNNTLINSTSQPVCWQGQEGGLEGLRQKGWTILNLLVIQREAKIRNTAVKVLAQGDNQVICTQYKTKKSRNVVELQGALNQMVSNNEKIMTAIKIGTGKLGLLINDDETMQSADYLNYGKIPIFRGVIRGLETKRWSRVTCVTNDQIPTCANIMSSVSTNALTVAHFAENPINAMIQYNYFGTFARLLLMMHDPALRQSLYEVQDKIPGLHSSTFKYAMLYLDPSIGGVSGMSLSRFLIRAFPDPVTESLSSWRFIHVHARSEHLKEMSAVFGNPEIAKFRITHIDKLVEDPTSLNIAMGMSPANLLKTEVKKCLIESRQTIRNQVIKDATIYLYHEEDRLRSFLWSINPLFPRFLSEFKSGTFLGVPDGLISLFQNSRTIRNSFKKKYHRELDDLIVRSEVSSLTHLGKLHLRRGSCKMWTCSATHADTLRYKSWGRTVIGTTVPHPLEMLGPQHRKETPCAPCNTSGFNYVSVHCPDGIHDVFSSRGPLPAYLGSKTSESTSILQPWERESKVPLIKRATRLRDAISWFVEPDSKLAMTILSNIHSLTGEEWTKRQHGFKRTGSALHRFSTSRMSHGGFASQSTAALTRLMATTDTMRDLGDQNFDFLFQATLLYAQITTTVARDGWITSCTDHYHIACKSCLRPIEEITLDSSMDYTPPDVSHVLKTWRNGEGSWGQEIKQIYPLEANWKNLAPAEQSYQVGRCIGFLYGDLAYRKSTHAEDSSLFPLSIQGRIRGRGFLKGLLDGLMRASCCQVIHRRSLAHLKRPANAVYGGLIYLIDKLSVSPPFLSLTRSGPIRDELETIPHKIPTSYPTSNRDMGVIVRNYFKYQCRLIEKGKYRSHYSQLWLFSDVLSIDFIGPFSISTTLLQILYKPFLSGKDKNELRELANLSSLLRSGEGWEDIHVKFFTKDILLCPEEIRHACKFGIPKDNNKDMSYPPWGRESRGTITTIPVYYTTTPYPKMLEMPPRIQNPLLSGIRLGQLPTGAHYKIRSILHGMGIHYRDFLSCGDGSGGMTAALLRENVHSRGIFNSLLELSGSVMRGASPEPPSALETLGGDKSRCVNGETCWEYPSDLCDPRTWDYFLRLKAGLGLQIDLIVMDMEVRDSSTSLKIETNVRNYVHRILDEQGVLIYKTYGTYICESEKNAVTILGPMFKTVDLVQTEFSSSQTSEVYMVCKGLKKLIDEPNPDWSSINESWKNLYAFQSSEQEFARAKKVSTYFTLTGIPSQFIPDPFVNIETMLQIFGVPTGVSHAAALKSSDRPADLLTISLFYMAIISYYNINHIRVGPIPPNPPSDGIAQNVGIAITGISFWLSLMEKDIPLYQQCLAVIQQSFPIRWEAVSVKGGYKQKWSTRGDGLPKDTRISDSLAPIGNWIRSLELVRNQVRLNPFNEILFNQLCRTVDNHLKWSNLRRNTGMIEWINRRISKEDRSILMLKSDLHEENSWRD

RSV polymerase (L-P) [3] = biological target: T2, RSV polymerase (L-P) (Human respiratory syncytial virus A, UniProt P28887); test: in vitro de novo RNA synthesis assay, TrC12 template; type: biochemical
T2 sequence (P03421 whole entry): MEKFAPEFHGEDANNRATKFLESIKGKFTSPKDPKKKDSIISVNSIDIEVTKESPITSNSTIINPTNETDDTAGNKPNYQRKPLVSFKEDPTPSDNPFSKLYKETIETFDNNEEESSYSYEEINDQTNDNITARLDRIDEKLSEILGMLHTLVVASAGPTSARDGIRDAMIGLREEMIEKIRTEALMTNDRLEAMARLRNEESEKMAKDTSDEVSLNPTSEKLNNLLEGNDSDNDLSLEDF
T2 sequence (P28887 whole entry): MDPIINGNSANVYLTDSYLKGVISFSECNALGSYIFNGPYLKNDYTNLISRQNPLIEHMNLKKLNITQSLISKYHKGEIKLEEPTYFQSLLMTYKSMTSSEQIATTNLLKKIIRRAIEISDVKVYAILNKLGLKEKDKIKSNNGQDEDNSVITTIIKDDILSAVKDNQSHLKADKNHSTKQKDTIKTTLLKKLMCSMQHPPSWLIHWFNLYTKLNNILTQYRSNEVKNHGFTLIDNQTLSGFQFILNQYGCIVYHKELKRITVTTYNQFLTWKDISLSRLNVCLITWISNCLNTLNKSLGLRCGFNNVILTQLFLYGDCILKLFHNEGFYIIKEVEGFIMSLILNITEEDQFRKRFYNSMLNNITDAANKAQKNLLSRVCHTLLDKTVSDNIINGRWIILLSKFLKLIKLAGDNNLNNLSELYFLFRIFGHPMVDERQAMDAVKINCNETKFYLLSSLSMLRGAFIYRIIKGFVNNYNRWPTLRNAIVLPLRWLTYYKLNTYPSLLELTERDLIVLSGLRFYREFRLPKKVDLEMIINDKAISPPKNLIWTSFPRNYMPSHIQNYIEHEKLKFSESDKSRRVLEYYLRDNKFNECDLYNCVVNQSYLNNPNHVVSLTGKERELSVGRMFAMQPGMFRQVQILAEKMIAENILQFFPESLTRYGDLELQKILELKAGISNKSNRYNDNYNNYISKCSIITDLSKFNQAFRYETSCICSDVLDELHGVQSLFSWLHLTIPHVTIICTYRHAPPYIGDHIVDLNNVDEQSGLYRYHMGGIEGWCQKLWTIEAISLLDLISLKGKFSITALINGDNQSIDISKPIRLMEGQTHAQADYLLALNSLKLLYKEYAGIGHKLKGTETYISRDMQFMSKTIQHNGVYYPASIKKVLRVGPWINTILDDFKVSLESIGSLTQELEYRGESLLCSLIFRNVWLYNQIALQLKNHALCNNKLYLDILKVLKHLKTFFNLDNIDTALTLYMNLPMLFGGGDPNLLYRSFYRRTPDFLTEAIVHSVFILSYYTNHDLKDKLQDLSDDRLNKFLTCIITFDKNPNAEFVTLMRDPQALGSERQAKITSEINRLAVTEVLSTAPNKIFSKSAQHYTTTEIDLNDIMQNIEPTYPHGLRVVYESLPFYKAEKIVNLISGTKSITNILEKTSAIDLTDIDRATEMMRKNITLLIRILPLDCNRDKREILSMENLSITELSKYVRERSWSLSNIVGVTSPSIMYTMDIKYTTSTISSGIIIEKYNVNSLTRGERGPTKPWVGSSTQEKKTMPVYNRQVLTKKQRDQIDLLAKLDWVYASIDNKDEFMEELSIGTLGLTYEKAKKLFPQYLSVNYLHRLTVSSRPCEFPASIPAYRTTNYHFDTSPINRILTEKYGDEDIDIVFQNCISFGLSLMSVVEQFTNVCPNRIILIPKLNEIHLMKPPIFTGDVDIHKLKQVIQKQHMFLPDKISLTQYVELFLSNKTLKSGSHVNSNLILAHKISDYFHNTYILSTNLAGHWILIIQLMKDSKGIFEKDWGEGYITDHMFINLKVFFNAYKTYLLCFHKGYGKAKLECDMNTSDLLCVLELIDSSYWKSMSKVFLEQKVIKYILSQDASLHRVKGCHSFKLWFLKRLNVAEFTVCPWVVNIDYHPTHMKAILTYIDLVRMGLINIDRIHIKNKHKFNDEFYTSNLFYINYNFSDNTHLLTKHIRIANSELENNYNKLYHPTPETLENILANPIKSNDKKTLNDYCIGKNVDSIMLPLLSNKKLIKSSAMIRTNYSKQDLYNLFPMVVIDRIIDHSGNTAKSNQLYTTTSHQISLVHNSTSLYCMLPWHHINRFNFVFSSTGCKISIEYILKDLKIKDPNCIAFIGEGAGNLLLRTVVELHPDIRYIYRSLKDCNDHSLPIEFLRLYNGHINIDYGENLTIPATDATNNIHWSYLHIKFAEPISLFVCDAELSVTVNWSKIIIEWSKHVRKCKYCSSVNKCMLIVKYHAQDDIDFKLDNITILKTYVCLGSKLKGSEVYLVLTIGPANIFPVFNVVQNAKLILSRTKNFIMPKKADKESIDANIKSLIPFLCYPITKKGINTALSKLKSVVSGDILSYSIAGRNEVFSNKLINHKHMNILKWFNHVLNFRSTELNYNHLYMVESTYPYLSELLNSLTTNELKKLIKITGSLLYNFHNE

VSBV polymerase (L-P) = type: biochemical, variegated squirrel bornavirus (VSBV); details: 1 mM
RSV polymerase (L-P) [4] = biological target: T2, RSV polymerase (L-P); test: in vitro primer-based RNA synthesis assay, TrC12 template and Tr4 primer; type: biochemical; details: 1 mM, TrC12 template, FIG. 3B

| SMILES | inhibition of RNA synthesis activity of NiV polymerase (NiV polymerase (L-P)) | inhibition of RNA synthesis activity of SARS-COV2 polymerase [1] | inhibition of RNA synthesis activity of VSV polymerase [2] | impact on the RSV polymerase activity in time course (RSV polymerase (L-P) [3]; 0, 25 and 50 μM, FIG. 5A) | activity of RSV polymerase in time course at 50 μM (RSV polymerase (L-P) [3]; 50 μM versus 0 and 25 μM, FIG. 5A) | RSV polymerase activity retained relative to the control group (RSV polymerase (L-P) [3]; 1 mM small molecule in 10% DMSO, 10% DMSO negative control, FIG. 2) [%] | inhibition of RSV polymerase in the in vitro assay (in words) (RSV polymerase (L-P) [3]; 1 mM, FIG. 2) | de novo RNA synthesis activity of RSV polymerase, rank among the tested molecules (RSV polymerase (L-P) [3]; 1 mM, FIG. 3A, compared with 10 other molecules) | inhibition of RNA synthesis activity of VSBV polymerase (VSBV polymerase (L-P)) | primer-based RNA synthesis activity of RSV polymerase, rank among the tested molecules (RSV polymerase (L-P) [4]) |
| --- | --- | --- | --- | --- | --- | --- | --- | --- | --- | --- |
| CCCCCOc1ccc(-c2cc(-c3ccc(C(=O)N[C@H]4C[C@@H](O)[C@@H](O)NC(=O)[C@@H]5[C@@H](O)[C@@H](C)CN5C(=O)[C@H]([C@H](O)CC(N)=O)NC(=O)[C@H]([C@H](O)[C@@H](O)c5ccc(O)c(OS(=O)(=O)O)c5)NC(=O)[C@@H]5C[C@@H](O)CN5C(=O)[C@H]([C@@H](C)O)NC4=O)cc3)no2)cc1 [Micafungin, 5-(2-(20-(3-amino-1-hydroxy-3-oxopropyl)-2,11,12,15-tetrahydroxy-6-(1-hydroxyethyl)-16-methyl-5,8,14,19,22,25-hexaoxo-9-(4-(5-(4-(pentyloxy)phenyl)isoxazol-3-yl)benzamido)tetracosahydro-1H-dipyrrolo[2,1-c: 2′,1′-1][1,4,7,10,13,16]hexaazacyclohenicosin-23-yl)-1,2-dihydroxyethyl)-2-hydroxyphenyl hydrogen sulfate] (X1-[Orn(4R-OH,5R-OH)]T[Hyp][hTyr(3S-OH,4S-OH,3'-OSO3H)][Gln(3R-OH)][Pro(3S-OH,4S-Me)]; lactam 1-C) | inhibit | inhibit | inhibit | time and concentration dependent | lowest at all time points | 29.6 | significant inhibitory activity | lowest | inhibit | best inhibitors |
| Cc1ccc(-n2[nH]c(C)c(N=Nc3cccc(-c4cccc(-c5nnn[nH]5)c4)c3O)c2=O)cc1C [Totrombopag, 2-(3,4-dimethylphenyl)-4-((2-hydroxy-3′-(1H-tetrazol-5-yl)-[1,1′-biphenyl]-3-yl)diazenyl)-5-methyl-1,2-dihydro-3H-pyrazol-3-one] | inhibit | inhibit | inhibit | – | – | – | – | – | inhibit | – |
| CN1C(N)=NC(C)(c2cc(NC(=O)c3ccc(F)cn3)ccc2F)CS1(=O)=O (stereo not drawn) [Verubecestat, N-(3-(3-amino-2,5-dimethyl-1,1-dioxido-5,6-dihydro-2H-1,2,4-thiadiazin-5-yl)-4-fluorophenyl)-5-fluoropicolinamide] | – | – | – | – | – | – | showed inhibition | – | – | – |
